From patent US20070059272A1 (priority 2005, published 2007)

Columns and labels:
[1] = tested on: PA-I expression in P. aeruginosa; format: cell-based, Pseudomonas aeruginosa
[2] = tested on: PA27853; experiment: Biofilm formation assay, PA27853; format: cell-based, Pseudomonas aeruginosa
[3] = tested on: MDCK cells; format: cell-based
[4] = tested on: PA-I promoter activity in reporter strain PA27853/PLL-EGFP
[5] = tested on: PA-I protein expression in PAO1; format: cell-based, Pseudomonas aeruginosa
[6] = tested on: P. aeruginosa; format: cell-based, Pseudomonas aeruginosa
[7] = tested on: lecA (PA-I) mRNA in PAO1; experiment: Northern blot of PA-I (lecA) mRNA in PAO1; format: cell-based, Pseudomonas aeruginosa; conditions: for PA-I mRNA by Northern blot: PAO1, 200 ng/ml cytokine in cell culture media, 4 hours
[8] = tested on: pyocyanin (PCN) production in P. aeruginosa PAO1; format: cell-based, Pseudomonas aeruginosa
[9] = tested on: PCN production in PAO1 mutant strains; format: cell-based, Pseudomonas aeruginosa
[10] = tested on: P. aeruginosa PA27853; experiment: Mice with slow release morphine pellets drinking PA27853-spiked formula; format: in vivo; conditions: daily oral 1×10^8 cfu/ml PA27853
[11] = tested on: PA-I expression in Pseudomonas strain PA27853; experiment: Quantitative RT-PCR of PA-I mRNA in PA27853 exposed to morphine; format: cell-based, Pseudomonas aeruginosa
[12] = tested on: membrane protein fractions of P. aeruginosa; experiment: Morphine binding to P. aeruginosa membrane protein fractions; parameters: species or system Pseudomonas aeruginosa
[13] = in vivo, iv; cited from earlier work
[14] = tested on: Caco-2 cells; experiment: TEER of Caco-2 monolayers inoculated with PA27853 with and without IFN-γ; format: cell-based, human
Protocol: (§1) In addition, strains were exposed to apical media from Caco-2 cells basolaterally exposed to single and combinations of the various epithelial-derived cytokines. […] Media from Caco-2 cells exposed to various combinations of these cytokines had no effect on PA-I expression. […] Using both ELISA, immunofluorescence microscopy, and flow cytometry, the binding characteristics of IFNγ were determined for both whole bacteria and membrane fractions of P. aeruginosa. […] These effects were also observed with strain PAO1. […] It has been difficult to immunoprecipitate a significant quantity of this protein from PA27853, but it has been determined that this protein can also be immunoprecipitated from E. coli (FIG. 12C). Next, IFN-γ binding specificity, to whole bacterial cells, was determined, using reiterative binding studies in the presence of various gram negatie bacterial strains, including P. aeruginosa. […] Finally, in order to determine if PA-I was functionally expressed in PA27853 in the presence IFN-γ, PA27853 was inoculated onto Caco-2 cell monolayers in the presence of IFN-γ and the effect on barrier dysregulating dynamics of PA27853 against this cell line were assessed to determine if IFN-γ shifted the dynamics. […]

[15] = tested on: whole bacterial cells of PA27853; experiment: IFN-γ binding to whole bacterial cells of PA27853; parameters: species or system Pseudomonas aeruginosa
Protocol: as §1

[16] = tested on: rhlI transcription in PAO1; experiment: Northern blot of rhlI gene expression in PAO1; format: cell-based, Pseudomonas aeruginosa
[17] = tested on: C4-HSL synthesis in PAO1; experiment: C4-HSL in PAO1 supernatant by luminescence reporter strain pSB536; format: cell-based, Pseudomonas aeruginosa; conditions: PAO1, 100 ng/ml IFN-γ, bacterial supernatants
[18] = tested on: whole cells of P. aeruginosa (strain PAO1); experiment: IFN-γ binding to whole cells of P. aeruginosa PAO1 (ELISA, immunofluorescence); parameters: species or system Pseudomonas aeruginosa
Protocol: IFN-γ direct binding to a protein on the surface of P. aeruginosa, in the course of virulence activation, was also investigated. ELISA binding assays were performed by first coating microtiter plates with P. aeruginosa (strain PAO1), then adding recombinant human IFN-γ (rH IFN-γ), followed by biotin-labeled anti-IFN-γ antibody. IFN-γ avidly bound to whole fixed cells of P. aeruginosa in a dose-dependent manner (FIG. 25A). The ELISA data were confirmed by the results of immunofluorescent imaging of bacterial cells exposed to IFN-γ followed by biotin-labeled anti-IFN-γ antibody and Alexa 594-labeled streptavidin. The vast majority of bacterial cells (73%±3.2% vs. 8.5%±2.5%) bound IFN-γ (FIG. 25B, FIG. 27). The binding capacity of the IFN-γ to the P. aeruginosa was affected by bacterial growth phase (FIG. 28A). In order to localize the binding site of IFN-γ to P. aeruginosa (PAO1), equal protein concentrations of membrane and cytosol fractions of P. aeruginosa were prepared and coated onto ELISA microtiter plates. […] To determine if the observed membrane binding by IFN-γ was protein dependent, membrane fractions were treated with proteinase K for 3 hours and IFN-γ binding assessed.

[19] = tested on: PA-I expression in P. aeruginosa; experiment: PA-I expression in P. aeruginosa exposed to media containing candidate host agents; format: cell-based, Pseudomonas aeruginosa; conditions: P. aeruginosa in media containing adenosine, TNFα, IL-2, IL-6, IL-8 or IFNγ
Excerpt: FIG. 10. Exposure of P. aeruginosa to IFNγ induces PA-I expression and the expression of rhlI. For controls (lane 1, 2) bacteria are suspended in media I (Tryptic soy broth) and media II (DMEM +10% FBS ). Lane 3, 4 are MRNA levels from bacteria exposed to IFNγ and TNFα in DMEM.
In addition, strains were exposed to apical media from Caco-2 cells basolaterally exposed to single and combinations of the various epithelial-derived cytokines. […] Media from Caco-2 cells exposed to various combinations of these cytokines had no effect on PA-I expression. […] Using both ELISA, immunofluorescence microscopy, and flow cytometry, the binding characteristics of IFNγ were determined for both whole bacteria and membrane fractions of P. aeruginosa. […] These effects were also observed with strain PAO1. […] It has been difficult to immunoprecipitate a significant quantity of this protein from PA27853, but it has been determined that this protein can also be immunoprecipitated from E. coli (FIG. 12C). Next, IFN-γ binding specificity, to whole bacterial cells, was determined, using reiterative binding studies in the presence of various gram negatie bacterial strains, including P. aeruginosa. […]

[20] = tested on: membrane fractions of P. aeruginosa (PAO1); experiment: ELISA binding to membrane fractions and solubilized membrane proteins of P. aeruginosa PAO1; parameters: species or system Pseudomonas aeruginosa
[21] = molecular target: T1, OprF (Pseudomonas aeruginosa, UniProt P13794); experiment: ELISA binding of IFN-γ to purified OprF; conditions: dose-dependent
T1 sequence (P13794 25-350): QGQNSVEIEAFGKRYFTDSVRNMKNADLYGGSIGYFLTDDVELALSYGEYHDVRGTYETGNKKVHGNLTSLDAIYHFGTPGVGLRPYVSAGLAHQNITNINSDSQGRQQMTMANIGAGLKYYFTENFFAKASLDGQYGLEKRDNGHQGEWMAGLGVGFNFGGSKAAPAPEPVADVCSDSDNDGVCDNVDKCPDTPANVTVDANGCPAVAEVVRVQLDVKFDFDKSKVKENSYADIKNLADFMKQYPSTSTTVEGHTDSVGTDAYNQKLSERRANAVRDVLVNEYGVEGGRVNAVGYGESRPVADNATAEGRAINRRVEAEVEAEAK

[22] = tested on: PA-I protein expression in P. aeruginosa mutant strains; experiment: PA-I expression in PAO1 mutant strains exposed to IFN-γ; format: cell-based, Pseudomonas aeruginosa

Molecule: C=CCN1C[C@H](C)N([C@H](c2ccc(C(=O)N(CC)CC)cc2)c2cccc(O)c2)C[C@H]1C [BW373U86]
- response to express PA-I [1]: robust response
- biofilm production [2]: especially increased
- TEER of MDCK cells following apical exposure to PA27853 plus opioid [3]: more profound decrease in the TEER
- PA-I expression as judged by fluorescence of the GFP reporter strain [4]: greatest effect on PA-I expression
- PA-I protein [5]: same degree as C4-HSL

Molecule: CCCC(=O)N[C@H]1CCOC1=O [C4-HSL, C4-homoserine lactone]
- bacterial growth in TSB media [6]: Neither compound had an effect
- PA-I expression, in vitro studies [1]: induced PA-I expression
- PA-I mRNA by Northern blot [7]: Induction of PA-I mRNA was observed
- onset of PCN production versus cell density [8]: shift in the production of PCN at lower cell densities
- PCN production in rhlR mutant strain [9]: did not restore PCN production
- PCN production in seven additional mvfR mutants [9]: none of these mutants produced PCN
- PCN production in ΔGacA and ΔMvfR [9]: unable to restore PCN production
- PCN production in ΔGacA/gacA [9]: decreased, albeit minimally
- PCN production in ΔMvfR/mvfR [9]: further increased
- PCN response of MvfR truncation mutant 121-332 [9]: did not respond
- PCN response of MvfR truncation mutants 1-292, 1-291 and 1-283 [9]: did not respond
- PCN response of MvfR truncation mutants 1-299 and 1-293 [9]: enhanced PCN production
- dynamics of PCN production in ΔGacA/gacA [9]: no effect on the dynamics of PCN production
- dynamics of PCN production in ΔMvfR/mvfR [9]: shift in PCN production at lower cell densities
- PA-I protein expression [5]: responds to varying doses

Molecule: CN1CC[C@]23c4c5ccc(O)c4O[C@H]2[C@@H](O)C=C[C@H]3[C@H]1C5 [morphine]
- response to express PA-I [1]: robust response
- mice that developed severe sepsis [10]: 4/4
- mortality [10]: significant mortality
- PA-I expression ([11]; PA27853, physiologic concentrations of morphine (13 μM)): four-fold increase
- increase in PA-I mRNA ([11]; PA27853 exposed to morphine (13 μM), quantitative RT-PCR): 4 fold
- binding to membrane protein fractions [12]: binds to membrane protein fractions
- concentration at tissue sites such as the intestinal mucosa [13]: ≤ 100 µM

Molecule: IFN-γ: human recombinant Interferon gamma
- PA-I expression, in vitro studies [1]: induced PA-I expression
- response to express PA-I [1]: robust response
- PA-I mRNA by Northern blot [7]: Induction of PA-I mRNA was observed
- PA-I mRNA ([7]; early stationary phase of growth): increased
- barrier dysregulating effect of PA27853 (TEER) ([14]; Caco-2, five hours of incubation): enhanced the barrier dysregulating effect
- TEER, IFN-γ alone ([14]; Caco-2, no bacteria): Neither media nor IFN-γ alone altered TEER
- binding to whole bacterial cells [15]: high binding affinity
- rhlI transcription [16]: induced
- pyocyanin production [8]: increased pyocyanin production
- C4-HSL synthesis [17]: increased
- PCN production induced by IFN-γ in rhlI and rhlR mutant strains [9]: abolished
- binding to whole fixed cells by ELISA ([18]; PAO1, recombinant human IFN-γ): avidly bound
- bacterial cells that bound IFN-γ ([18]; immunofluorescent imaging, versus 8.5%±2.5% control): 73%±3.2%
- PA-I expression, candidate agents alone [19]: induced a direct effect on PA-I expression
- binding to membrane versus cytosol fractions ([20]; equal protein concentrations, ELISA): preferentially bound to membrane fractions
- binding to membranes after proteinase K ([20]; proteinase K for 3 hours): decreased
- binding to solubilized membrane proteins of OprF knockout strains ([20]; versus wild-type PAO1, ELISA): reduced binding
- PA-I expression in reporter strain exposed to cytokines [4]: significant increase in PA-I expression
- binding to purified OprF [21]: directly binds
- PA-I expression induced by IFN-γ in rhlI and rhlR mutant strains [22]: abolished
- PA-I protein expression in OprF mutant strains ([22]; 100 ng/ml of IFN-γ): failed to increase the expression of the PA-I protein
- PA-I protein expression in strain 31899 reconstituted with OprF ([22]; plasmid pUCP24/OprF): recovery of their responsiveness
- IFN-γ concentration with the greatest increase in PA-I protein expression [5]: 100 ng/mL
- PA-I protein [5]: increased
